Experimental data reported in US9011912B2, “Extended-release oral dosage forms for poorly soluble amine drugs” (Abon Pharmaceuticals, LLC, priority 2010, dated 2015).
Read-outs that look alike come from different tables or passages of the source.

Key:
[1] = amine drug, cited from earlier work
[2] = Solubility test of paliperidone with ionizable compound (citric acid) and amphiphilic compound (SoluPlus); type: physicochemical; details: for solubility: room temperature
Method: A solubility test was performed to quantify the synergistic effects provided by the combination of an ionizable polymer and an amphiphilic compound. In this Example the ionizable compound was citric acid and the amphiphilic compound was SoluPlus®.

solubility higher in solution containing ionizable compound and amphiphilic polymer compared to ionizable compound without amphiphilic polymer ([2]; 10% Soluplus + 10% citric acid vs 10% citric acid alone)	solubility ([2]; aqueous buffer, in 10% Citric Acid Aqueous Solution)	solubility ([2]; aqueous with cosolvent or surfactant or cyclodextrin, in 10% Soluplus Aqueous Solution)	solubility ([2]; aqueous with cosolvent or surfactant or cyclodextrin, in 10% Soluplus and 10% Citric Acid Aqueous Solution)	SMILES	pKa ([1]; first pKa value)	pKa ([1]; second pKa value)
				Cc1cc2c(s1)Nc1ccccc1N=C2N1CCN(C)CC1 [Olanzapine]	5	7.4
34.3%	241 mg/mL	0.6 mg/mL	324 mg/mL	Cc1nc2n(c(=O)c1CCN1CCC(c3noc4cc(F)ccc34)CC1)CCCC2O (stereo not drawn) [Paliperidone]	8.2	8.6
				CCOc1ccccc1OCCN[C@H](C)Cc1ccc(OC)c(S(N)(=O)=O)c1 [Tamsulosin]		10.23
